# From ChEMBL document CHEMBL3885861, “Open TG-GATES”
# Species: Rattus norvegicus
# Assay: Open TG-GATES - Regimen: Single
# Type: toxicity, organism-based, Sprague-Dawley
# Parameters: regimen Single, gender Male, age 6 weeks
# Conditions: in vivo, po, 0 mg/kg, route gavage, dose level Control; for APTT / Bas / Eos / Fbg / Hb / Ht / Lym / MCH / MCHC / MCV / Mono / Neu / PT / Plat / RBC / Ret / WBC: tissue Blood; for KIDNEY_L / KIDNEY_R / KIDNEY_TOTAL: tissue Kidney; for LIVER: tissue Liver; for A/G / ALP / ALT / AST / BUN / CRE / Ca / Cl / DBIL / GLC / IP / K / LDH / Na / PL / RALB / TBIL / TC / TG / TP / gamma-GTP: tissue Plasma
smiles,measurement,setting,value
Cn1cnc([N+](=O)[O-])c1Sc1ncnc2nc[nH]c12 [AZATHIOPRINE],TERMINAL_BW,3 h,189.8 g
same,APTT,3 h,23.1 s
same,Bas,3 h,0%
same,Eos,3 h,1%
same,Fbg,3 h,288.2 mg/dL
same,Hb,3 h,13.4 g/dL
same,Ht,3 h,39.3%
same,Lym,3 h,78.6%
same,MCH,3 h,21.9 pg
same,MCHC,3 h,34%
same,MCV,3 h,64.5 fL
same,Mono,3 h,2.4%
same,Neu,3 h,17.2%
same,PT,3 h,15.7 s
same,Plat,3 h,117.7 x10_4/uL
same,RBC,3 h,610.8 x10_4/ul
same,Ret,3 h,9.3%
same,WBC,3 h,98.5 x10_2/uL
same,KIDNEY_L,3 h,0.9 g
same,KIDNEY_R,3 h,0.9 g
same,KIDNEY_TOTAL,3 h,1.7 g
same,LIVER,3 h,8.6 g
same,A/G,3 h,1.1
same,ALP,3 h,1465.6 IU/L
same,ALT,3 h,46.8 IU/L
same,AST,3 h,78.4 IU/L
same,BUN,3 h,11.8 mg/dL
same,CRE,3 h,0.2 mg/dL
same,Ca,3 h,10.3 mg/dL
same,Cl,3 h,107 meq/L
same,DBIL,3 h,0 mg/dL
same,GLC,3 h,175.4 mg/dL
same,IP,3 h,8.2 mg/dL
same,K,3 h,3.9 meq/L
same,LDH,3 h,217.6 IU/L
same,Na,3 h,142.6 meq/L
same,PL,3 h,129.6 mg/dL
same,RALB,3 h,2.9 g/dL
same,TBIL,3 h,0.006 mg/dL
same,TC,3 h,79 mg/dL
same,TG,3 h,46 mg/dL
same,TP,3 h,5.5 g/dL
same,gamma-GTP,3 h,1.2 IU/L
same,TERMINAL_BW,6 h,186.3 g
same,APTT,6 h,21.1 s
same,Bas,6 h,0%
same,Eos,6 h,1%
same,Fbg,6 h,307.4 mg/dL
same,Hb,6 h,13.2 g/dL
same,Ht,6 h,39.3%
same,Lym,6 h,73.8%
same,MCH,6 h,21.6 pg
same,MCHC,6 h,33.7%
same,MCV,6 h,64.1 fL
same,Mono,6 h,2.4%
same,Neu,6 h,22%
same,PT,6 h,15.7 s
same,Plat,6 h,124.9 x10_4/uL
same,RBC,6 h,612.4 x10_4/ul
same,Ret,6 h,9.5%
same,WBC,6 h,66 x10_2/uL
same,KIDNEY_L,6 h,0.9 g
same,KIDNEY_R,6 h,0.9 g
same,KIDNEY_TOTAL,6 h,1.7 g
same,LIVER,6 h,8.4 g
same,A/G,6 h,1.3
same,ALP,6 h,1451.6 IU/L
same,ALT,6 h,42.8 IU/L
same,AST,6 h,70.8 IU/L
same,BUN,6 h,11.6 mg/dL
same,CRE,6 h,0.1 mg/dL
same,Ca,6 h,10.4 mg/dL
same,Cl,6 h,106.4 meq/L
same,DBIL,6 h,0.002 mg/dL
same,GLC,6 h,183.8 mg/dL
same,IP,6 h,8.8 mg/dL
same,K,6 h,4.2 meq/L
same,LDH,6 h,254.6 IU/L
same,Na,6 h,141.6 meq/L
same,PL,6 h,137.8 mg/dL
same,RALB,6 h,3.1 g/dL
same,TBIL,6 h,0.014 mg/dL
same,TC,6 h,77.6 mg/dL
same,TG,6 h,66.8 mg/dL
same,TP,6 h,5.5 g/dL
same,gamma-GTP,6 h,1 IU/L
same,TERMINAL_BW,9 h,190.4 g
same,APTT,9 h,20.8 s
same,Bas,9 h,0%
same,Eos,9 h,0.6%
same,Fbg,9 h,301.8 mg/dL
same,Hb,9 h,12.6 g/dL
same,Ht,9 h,37.7%
same,Lym,9 h,79.6%
same,MCH,9 h,21.6 pg
same,MCHC,9 h,33.2%
same,MCV,9 h,65 fL
same,Mono,9 h,2%
same,Neu,9 h,16.2%
same,PT,9 h,15.2 s
same,Plat,9 h,127.2 x10_4/uL
same,RBC,9 h,582 x10_4/ul
same,Ret,9 h,9.9%
same,WBC,9 h,93.5 x10_2/uL
same,KIDNEY_L,9 h,0.9 g
same,KIDNEY_R,9 h,0.9 g
same,KIDNEY_TOTAL,9 h,1.9 g
same,LIVER,9 h,8.2 g
same,A/G,9 h,1.3
same,ALP,9 h,1520.4 IU/L
same,ALT,9 h,38 IU/L
same,AST,9 h,72.8 IU/L
same,BUN,9 h,10.6 mg/dL
same,CRE,9 h,0.1 mg/dL
same,Ca,9 h,10.5 mg/dL
same,Cl,9 h,105.6 meq/L
same,DBIL,9 h,0.004 mg/dL
same,GLC,9 h,176.2 mg/dL
same,IP,9 h,9.5 mg/dL
same,K,9 h,4.3 meq/L
same,LDH,9 h,182.4 IU/L
same,Na,9 h,141.2 meq/L
same,PL,9 h,125.2 mg/dL
same,RALB,9 h,3 g/dL
same,TBIL,9 h,0.016 mg/dL
same,TC,9 h,76.4 mg/dL
same,TG,9 h,46.2 mg/dL
same,TP,9 h,5.3 g/dL
same,gamma-GTP,9 h,1 IU/L
same,TERMINAL_BW,24 h,202.7 g
same,APTT,24 h,21.7 s
same,Bas,24 h,0%
same,Eos,24 h,0.6%
same,Fbg,24 h,308.2 mg/dL
same,Hb,24 h,13.5 g/dL
same,Ht,24 h,39.6%
same,Lym,24 h,77.4%
same,MCH,24 h,22.2 pg
same,MCHC,24 h,34.1%
same,MCV,24 h,65.2 fL
same,Mono,24 h,2%
same,Neu,24 h,18.6%
same,PT,24 h,16.2 s
same,Plat,24 h,117.2 x10_4/uL
same,RBC,24 h,607 x10_4/ul
same,Ret,24 h,8.8%
same,WBC,24 h,97.8 x10_2/uL
same,KIDNEY_L,24 h,0.9 g
same,KIDNEY_R,24 h,0.9 g
same,KIDNEY_TOTAL,24 h,1.7 g
same,LIVER,24 h,9.6 g
same,A/G,24 h,1.2
same,ALP,24 h,1642 IU/L
same,ALT,24 h,46 IU/L
same,AST,24 h,74.6 IU/L
same,BUN,24 h,16.8 mg/dL
same,CRE,24 h,0.1 mg/dL
same,Ca,24 h,11 mg/dL
same,Cl,24 h,106.8 meq/L
same,DBIL,24 h,0 mg/dL
same,GLC,24 h,185.6 mg/dL
same,IP,24 h,7 mg/dL
same,K,24 h,3.9 meq/L
same,LDH,24 h,223.2 IU/L
same,Na,24 h,143.2 meq/L
same,PL,24 h,156.8 mg/dL
same,RALB,24 h,3.1 g/dL
same,TBIL,24 h,0.006 mg/dL
same,TC,24 h,86.8 mg/dL
same,TG,24 h,102.8 mg/dL
same,TP,24 h,5.6 g/dL
same,gamma-GTP,24 h,1 IU/L
